Data published in the Kinase Knowledgebase extract (Sharma et al. 2016).

Legend:
[1] = biological target: PIK3CA (human) (UniProt P42336); experiment: Inhibition of PIK3CA Kinase Activity
[2] = biological target: PIK3CD (Human) (UniProt O00329); experiment: Inhibition of PIK3CD Kinase Activity
[3] = biological target: PIK3CB (Human) (UniProt P42338); experiment: Inhibition of PIK3CB Kinase Activity
[4] = biological target: PIK3CG (human) (UniProt P48736); experiment: Inhibition of PIK3CG Kinase Activity
Sequence of PIK3CG (human) (P48736 whole entry, looked up): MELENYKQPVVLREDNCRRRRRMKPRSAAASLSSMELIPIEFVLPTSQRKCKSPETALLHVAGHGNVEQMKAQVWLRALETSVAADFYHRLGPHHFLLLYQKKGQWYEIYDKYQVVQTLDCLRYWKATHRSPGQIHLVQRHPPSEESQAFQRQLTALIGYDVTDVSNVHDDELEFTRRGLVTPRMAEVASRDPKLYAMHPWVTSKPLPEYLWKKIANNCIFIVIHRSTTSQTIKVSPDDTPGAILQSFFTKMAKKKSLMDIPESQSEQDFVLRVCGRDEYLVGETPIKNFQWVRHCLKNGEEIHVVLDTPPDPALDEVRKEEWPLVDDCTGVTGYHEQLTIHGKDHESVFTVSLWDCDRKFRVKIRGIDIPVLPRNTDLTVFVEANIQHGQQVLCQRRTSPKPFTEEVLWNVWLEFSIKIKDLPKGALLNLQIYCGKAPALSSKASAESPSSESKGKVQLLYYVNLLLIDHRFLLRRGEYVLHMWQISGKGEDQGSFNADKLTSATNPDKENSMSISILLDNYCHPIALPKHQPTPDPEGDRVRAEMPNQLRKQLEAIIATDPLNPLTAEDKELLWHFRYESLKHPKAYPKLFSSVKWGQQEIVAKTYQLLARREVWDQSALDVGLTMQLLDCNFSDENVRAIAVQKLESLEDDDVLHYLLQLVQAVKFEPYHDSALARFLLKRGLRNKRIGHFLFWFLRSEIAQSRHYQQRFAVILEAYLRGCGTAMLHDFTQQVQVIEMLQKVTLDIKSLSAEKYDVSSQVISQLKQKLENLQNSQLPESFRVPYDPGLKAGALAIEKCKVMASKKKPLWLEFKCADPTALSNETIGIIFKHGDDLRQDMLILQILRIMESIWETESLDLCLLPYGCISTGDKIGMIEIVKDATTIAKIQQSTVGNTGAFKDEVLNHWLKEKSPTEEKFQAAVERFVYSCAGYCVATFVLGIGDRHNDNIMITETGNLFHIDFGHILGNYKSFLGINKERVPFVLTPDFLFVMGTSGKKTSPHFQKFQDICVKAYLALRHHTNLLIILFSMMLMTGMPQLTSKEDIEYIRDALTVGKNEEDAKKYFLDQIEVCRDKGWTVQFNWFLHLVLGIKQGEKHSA

Sequence of PIK3CD (Human) (O00329 whole entry, looked up): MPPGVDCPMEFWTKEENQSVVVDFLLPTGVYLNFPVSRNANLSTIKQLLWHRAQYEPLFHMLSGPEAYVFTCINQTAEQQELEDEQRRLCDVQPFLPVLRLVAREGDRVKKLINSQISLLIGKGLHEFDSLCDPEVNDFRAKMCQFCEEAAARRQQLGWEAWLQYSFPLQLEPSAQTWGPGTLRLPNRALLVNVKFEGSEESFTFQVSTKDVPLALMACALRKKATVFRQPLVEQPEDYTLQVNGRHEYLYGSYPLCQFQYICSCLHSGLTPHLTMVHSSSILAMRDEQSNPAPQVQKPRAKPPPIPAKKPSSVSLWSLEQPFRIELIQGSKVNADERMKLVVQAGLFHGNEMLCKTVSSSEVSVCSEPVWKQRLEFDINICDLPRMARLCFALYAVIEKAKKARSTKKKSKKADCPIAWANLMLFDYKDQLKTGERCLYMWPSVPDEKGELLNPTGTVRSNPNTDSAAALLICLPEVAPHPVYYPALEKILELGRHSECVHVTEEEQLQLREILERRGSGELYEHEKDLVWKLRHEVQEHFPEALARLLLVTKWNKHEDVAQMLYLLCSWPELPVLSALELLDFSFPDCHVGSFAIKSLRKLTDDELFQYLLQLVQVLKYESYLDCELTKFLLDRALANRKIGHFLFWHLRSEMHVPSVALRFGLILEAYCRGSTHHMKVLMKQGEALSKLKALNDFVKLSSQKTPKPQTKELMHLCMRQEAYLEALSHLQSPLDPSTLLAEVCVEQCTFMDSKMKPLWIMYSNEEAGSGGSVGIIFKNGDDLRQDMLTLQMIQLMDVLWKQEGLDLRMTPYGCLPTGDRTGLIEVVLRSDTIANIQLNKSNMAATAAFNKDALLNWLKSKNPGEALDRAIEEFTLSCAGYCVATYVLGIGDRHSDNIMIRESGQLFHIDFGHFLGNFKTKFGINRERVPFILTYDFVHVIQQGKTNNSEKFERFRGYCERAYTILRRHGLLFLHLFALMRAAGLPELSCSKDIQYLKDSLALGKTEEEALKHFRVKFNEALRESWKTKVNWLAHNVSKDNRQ
Sequence of PIK3CA (human) (P42336 whole entry, looked up): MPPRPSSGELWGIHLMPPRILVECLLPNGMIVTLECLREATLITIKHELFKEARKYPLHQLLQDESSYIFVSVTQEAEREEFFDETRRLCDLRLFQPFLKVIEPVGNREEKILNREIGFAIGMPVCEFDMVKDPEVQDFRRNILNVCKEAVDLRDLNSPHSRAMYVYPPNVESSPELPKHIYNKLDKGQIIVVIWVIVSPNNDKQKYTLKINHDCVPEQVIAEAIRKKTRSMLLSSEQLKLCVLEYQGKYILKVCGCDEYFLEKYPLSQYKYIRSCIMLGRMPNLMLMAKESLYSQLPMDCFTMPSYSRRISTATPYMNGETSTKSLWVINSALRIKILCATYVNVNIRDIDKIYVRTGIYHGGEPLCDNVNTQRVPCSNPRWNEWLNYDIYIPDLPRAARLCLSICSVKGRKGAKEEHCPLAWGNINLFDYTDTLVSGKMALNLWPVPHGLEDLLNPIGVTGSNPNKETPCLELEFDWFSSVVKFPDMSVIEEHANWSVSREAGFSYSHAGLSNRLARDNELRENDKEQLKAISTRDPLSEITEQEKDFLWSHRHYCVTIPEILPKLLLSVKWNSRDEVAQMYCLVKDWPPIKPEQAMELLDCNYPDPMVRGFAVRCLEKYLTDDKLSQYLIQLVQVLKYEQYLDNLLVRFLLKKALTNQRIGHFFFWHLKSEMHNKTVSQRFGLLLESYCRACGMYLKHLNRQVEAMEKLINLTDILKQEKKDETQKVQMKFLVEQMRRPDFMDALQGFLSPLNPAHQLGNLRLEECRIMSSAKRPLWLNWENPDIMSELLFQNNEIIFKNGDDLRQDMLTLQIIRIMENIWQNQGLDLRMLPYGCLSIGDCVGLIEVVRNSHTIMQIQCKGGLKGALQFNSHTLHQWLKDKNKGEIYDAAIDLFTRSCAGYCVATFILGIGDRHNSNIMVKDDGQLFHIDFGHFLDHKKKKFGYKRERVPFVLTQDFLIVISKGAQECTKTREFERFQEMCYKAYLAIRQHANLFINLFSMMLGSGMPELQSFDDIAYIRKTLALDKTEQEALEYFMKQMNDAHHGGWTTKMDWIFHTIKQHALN
Sequence of PIK3CB (Human) (P42338 whole entry, looked up): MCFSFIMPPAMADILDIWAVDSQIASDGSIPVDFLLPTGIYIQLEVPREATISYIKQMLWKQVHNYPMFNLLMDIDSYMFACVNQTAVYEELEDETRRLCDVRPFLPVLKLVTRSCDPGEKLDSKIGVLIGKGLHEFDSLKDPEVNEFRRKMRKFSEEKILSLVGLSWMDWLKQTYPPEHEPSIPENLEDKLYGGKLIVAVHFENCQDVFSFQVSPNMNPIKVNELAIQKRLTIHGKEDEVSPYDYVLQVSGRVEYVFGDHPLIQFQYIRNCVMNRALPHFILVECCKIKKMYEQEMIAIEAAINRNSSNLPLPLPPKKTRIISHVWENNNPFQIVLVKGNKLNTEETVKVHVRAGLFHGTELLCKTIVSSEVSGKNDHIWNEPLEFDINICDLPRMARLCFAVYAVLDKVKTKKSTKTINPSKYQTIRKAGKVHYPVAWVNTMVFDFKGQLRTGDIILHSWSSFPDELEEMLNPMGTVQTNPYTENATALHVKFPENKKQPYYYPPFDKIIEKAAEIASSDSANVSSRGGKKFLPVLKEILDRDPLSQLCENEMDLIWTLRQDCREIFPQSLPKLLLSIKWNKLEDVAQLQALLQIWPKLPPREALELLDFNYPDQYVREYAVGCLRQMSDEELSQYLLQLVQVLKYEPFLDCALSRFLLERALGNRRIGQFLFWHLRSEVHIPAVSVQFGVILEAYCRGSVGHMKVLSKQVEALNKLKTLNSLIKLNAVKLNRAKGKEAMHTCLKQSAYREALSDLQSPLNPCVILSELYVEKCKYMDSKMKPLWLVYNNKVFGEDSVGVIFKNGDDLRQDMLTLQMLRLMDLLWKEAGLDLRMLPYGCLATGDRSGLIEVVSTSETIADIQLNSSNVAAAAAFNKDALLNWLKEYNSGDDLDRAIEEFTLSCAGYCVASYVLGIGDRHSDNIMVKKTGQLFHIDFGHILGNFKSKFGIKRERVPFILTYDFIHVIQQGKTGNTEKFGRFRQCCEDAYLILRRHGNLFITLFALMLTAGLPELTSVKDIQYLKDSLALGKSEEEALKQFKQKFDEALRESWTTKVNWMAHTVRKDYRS

Row | SMILES | IC50 [1] | IC50 [2] | IC50 [3] | IC50 [4]
1 | CC1(C)CC(=O)c2sc(N3CCOCC3Cc3ccc(-c4ccccc4)cc3)nc2C1 (stereo not drawn) | ≤ 50 µM | ≤ 50 µM | ≤ 50 µM | ≤ 50 µM
2 | CC1(C)CNC(=O)c2sc(N3CCOCC3Cc3cccc4ncccc34)nc2C1 (stereo not drawn) | ≤ 50 µM | ≤ 50 µM | ≤ 50 µM | ≤ 50 µM
3 | CC1CCc2nc(N3CCOCC3)sc2C(=O)N1 (stereo not drawn) | ≤ 50 µM | ≤ 50 µM | ≤ 50 µM | ≤ 50 µM
4 | CC1(C)CC(=O)c2sc(nc2C1)N3CCOCC3CN4=CCCc5ccccc45 | ≤ 50 µM | ≤ 50 µM | ≤ 50 µM | ≤ 50 µM
5 | CC1(C)CC(=O)c2sc(N3CCOCC3Cc3c[nH]c4ccccc34)nc2C1 (stereo not drawn) | ≤ 50 µM | ≤ 50 µM | ≤ 50 µM | ≤ 50 µM
6 | CC1(C)CC(=O)c2sc(N3CCOC[C@@H]3Cc3cccc(-c4ccc(Cl)nc4)c3)nc2C1 | ≤ 50 µM | ≤ 50 µM | ≤ 50 µM | ≤ 50 µM
7 | CC1(C)CNC(=S)c2sc(N3CCOCC3)nc2C1 | ≤ 50 µM | ≤ 50 µM | ≤ 50 µM | ≤ 50 µM
8 | CC1(C)CC(=O)c2sc(N3CCOC[C@@H]3Cc3cccc(-c4cccc(C(F)(F)F)c4)c3)nc2C1 | ≤ 50 µM | ≤ 50 µM | ≤ 50 µM | ≤ 50 µM
9 | CC(=O)Nc1cccc(-c2cccc(C[C@H]3COCCN3c3nc4c(s3)C(=O)CC(C)(C)C4)c2)c1 | ≤ 50 µM | ≤ 50 µM | ≤ 50 µM | ≤ 50 µM
10 | CC1(C)CC(=O)c2sc(N3CCOCC3C(=O)N3CCNc4ccccc43)nc2C1 (stereo not drawn) | ≤ 50 µM | ≤ 50 µM | ≤ 50 µM | ≤ 50 µM
11 | CC1(C)CC(=O)c2sc(nc2C1)N3CCOCC3C(=O)N4=CCCc5ccccc45 | ≤ 50 µM | ≤ 50 µM | ≤ 50 µM | ≤ 50 µM
12 | CC1(C)CC(=O)c2sc(N3CCOCC3CNc3ccccc3)nc2C1 (stereo not drawn) | ≤ 50 µM | ≤ 50 µM | ≤ 50 µM | ≤ 50 µM
13 | CC1(C)CCc2nc(N3CCOCC3)sc2C1=NO | ≤ 50 µM | ≤ 50 µM | ≤ 50 µM | ≤ 50 µM
14 | CC1(C)CC(=O)c2sc(N3CCOC[C@@H]3Cc3cccc(-c4ccc(F)cc4)c3)nc2C1 | ≤ 50 µM | ≤ 50 µM | ≤ 50 µM | ≤ 50 µM
15 | CC1(C)CC(=O)c2sc(N3CCOC[C@@H]3Cc3cccc(-c4cc(Cl)ccc4Cl)c3)nc2C1 | ≤ 50 µM | ≤ 50 µM | ≤ 50 µM | ≤ 50 µM
16 | CC1(C)Cc2nc(N3CCOCC3)sc2C(O)C1 (stereo not drawn) | ≤ 50 µM | ≤ 50 µM | ≤ 50 µM | ≤ 50 µM
17 | CC1(C)CC(=O)c2sc(N3CCOC[C@@H]3Cc3cccc(-c4cccnc4)c3)nc2C1 | ≤ 50 µM | ≤ 50 µM | ≤ 50 µM | ≤ 50 µM
18 | CC1(C)CC(=O)c2sc(N3CCOCC3Cc3ccc(-c4cccnc4)cc3)nc2C1 (stereo not drawn) | ≤ 50 µM | ≤ 50 µM | ≤ 50 µM | ≤ 50 µM
19 | CC1(C)CC(=O)c2sc(N3CCOCC3Cc3ccc(N4CCOCC4)cc3)nc2C1 (stereo not drawn) | ≤ 50 µM | ≤ 50 µM | ≤ 50 µM | ≤ 50 µM
20 | CC1(C)CC(=O)c2sc(N3CCOC[C@@H]3Cc3c[nH]c4ccc(OCc5ccccc5)cc34)nc2C1 | ≤ 50 µM | ≤ 50 µM | ≤ 50 µM | ≤ 50 µM
21 | CC(=O)c1ccc(-c2cccc(C[C@H]3COCCN3c3nc4c(s3)C(=O)CC(C)(C)C4)c2)cc1 | ≤ 50 µM | ≤ 50 µM | ≤ 50 µM | ≤ 50 µM
22 | COc1ccc(-c2cccc(C[C@H]3COCCN3c3nc4c(s3)C(=O)CC(C)(C)C4)c2)cc1 | ≤ 50 µM | ≤ 50 µM | ≤ 50 µM | ≤ 50 µM
23 | CC1(C)CCc2nc(N3CCOCC3)sc2C1=O | ≤ 50 µM | ≤ 50 µM | ≤ 50 µM | ≤ 50 µM

Next, values leading:

Row | IC50 [1] | IC50 [2] | IC50 [3] | IC50 [4] | SMILES
24 | ≤ 50 µM | ≤ 50 µM | ≤ 50 µM | ≤ 50 µM | Cc1ccccc1-c1cccc(C[C@H]2COCCN2c2nc3c(s2)C(=O)CC(C)(C)C3)c1
25 | ≤ 50 µM | ≤ 50 µM | ≤ 50 µM | ≤ 50 µM | CC1(C)CC(=O)c2sc(N3CCOC[C@@H]3Cn3nnc4ccccc43)nc2C1
26 | ≤ 50 µM | ≤ 50 µM | ≤ 50 µM | ≤ 50 µM | CC1(C)CC(=O)c2sc(N3CCOCC3Cc3ccc(Br)cc3)nc2C1 (stereo not drawn)
27 | ≤ 50 µM | ≤ 50 µM | ≤ 50 µM | ≤ 50 µM | CC1(C)CNC(=O)c2sc(N3CCOC[C@@H]3Cc3cccc(-c4cccnc4)c3)nc2C1
28 | ≤ 50 µM | ≤ 50 µM | ≤ 50 µM | ≤ 50 µM | CC1(C)CC(=NO)c2sc(N3CCOC[C@@H]3Cc3c[nH]c4ccccc34)nc2C1
29 | ≤ 50 µM | ≤ 50 µM | ≤ 50 µM | ≤ 50 µM | CC1(C)CC(=O)c2sc(N3CCOCC3Cc3cccc(Br)n3)nc2C1 (stereo not drawn)
30 | ≤ 50 µM | ≤ 50 µM | ≤ 50 µM | ≤ 50 µM | CC1(C)CC(=O)c2sc(N3CCOC[C@@H]3Cc3cccc(-c4ccccc4CO)c3)nc2C1
31 | ≤ 50 µM | ≤ 50 µM | ≤ 50 µM | ≤ 50 µM | CC1(C)CC(=O)c2sc(N3CCOC[C@@H]3Cc3cccc(-c4ccsc4)c3)nc2C1
32 | ≤ 50 µM | ≤ 50 µM | ≤ 50 µM | ≤ 50 µM | CSc1ccc(C2CC(=O)c3sc(N4CCOCC4)nc3C2)cc1 (stereo not drawn)
33 | ≤ 50 µM | ≤ 50 µM | ≤ 50 µM | ≤ 50 µM | Cc1csc(-c2cccc(C[C@H]3COCCN3c3nc4c(s3)C(=O)CC(C)(C)C4)c2)c1
34 | ≤ 50 µM | ≤ 50 µM | ≤ 50 µM | ≤ 50 µM | CC1(C)CC(=O)c2sc(N3CCOC[C@@H]3Cc3cccc(-c4ccc(Cl)c(Cl)c4)c3)nc2C1
35 | ≤ 50 µM | ≤ 50 µM | ≤ 50 µM | ≤ 50 µM | CC1(C)CC(=O)c2sc(N3CCOC[C@@H]3Cc3cccc(-c4c(F)cccc4F)c3)nc2C1
36 | ≤ 50 µM | ≤ 50 µM | ≤ 50 µM | ≤ 50 µM | CC1(C)CC(=O)c2sc(N3CCOC[C@@H]3Cc3cccc(-c4cccc(Br)c4)c3)nc2C1
37 | ≤ 50 µM | ≤ 50 µM | ≤ 50 µM | ≤ 50 µM | CC1(C)CC(=S)c2sc(N3CCOCC3Cc3cccc4ccccc34)nc2C1 (stereo not drawn)
38 | ≤ 50 µM | ≤ 50 µM | ≤ 50 µM | ≤ 50 µM | CC1(C)CC(=O)c2sc(N3CCOC[C@@H]3Cc3cccc(-c4ccncc4)c3)nc2C1
39 | ≤ 50 µM | ≤ 50 µM | ≤ 50 µM | ≤ 50 µM | CC1(C)CC(=O)c2sc(N3CCOCC3Cc3cccc4cccnc34)nc2C1 (stereo not drawn)
40 | ≤ 50 µM | ≤ 50 µM | ≤ 50 µM | ≤ 50 µM | CC1(C)CC(=O)c2sc(N3CCOC[C@@H]3Cc3cccc(-c4csc5ccccc45)c3)nc2C1
41 | ≤ 50 µM | ≤ 50 µM | ≤ 50 µM | ≤ 50 µM | CC1(C)CNC(=O)c2sc(N3CCOC[C@@H]3Cc3cccc(-c4ccccc4)c3)nc2C1
42 | ≤ 50 µM | ≤ 50 µM | ≤ 50 µM | ≤ 50 µM | CC1(C)CNC(=O)c2sc(N3CCOCC3Cc3c[nH]c4ncccc34)nc2C1 (stereo not drawn)
